# Reference: US10173968B2, “Bishydrazone-based antifungal agents” (University of Kentucky Research Foundation, priority 2016, dated 2019)
# Several values for one entry are separate records, joined by “and”; a condition that tells them apart may be missing. Equal entries are not always repeated. Where two headings read alike, the source gives them in different places.
# Experiments:
# C. albicans ATCC 1237 = assay: Antifungal MIC, CLSI M27-A3 microbroth dilution; format: cell-based, Candida albicans; conditions: ITC, and VOR
# Protocol: (§1) In vitro MIC testing was performed according to the CLSI M27-A3 standard microbroth dilution methodology for the susceptibility testing of yeasts with minor modifications.
# C. albicans ATCC 2876 = assay: Antifungal MIC, CLSI M27-A3 microbroth dilution; format: cell-based, Candida albicans; conditions: Candida albicans, ATCC2876, C. albicans ATCC 2876, susceptible to FLC, ITC, and VOR, read-out: MIC
# Protocol: as §1
# C. albicans ATCC 64124 = assay: Antifungal MIC, CLSI M27-A3 microbroth dilution; format: cell-based, Candida albicans; conditions: Candida albicans, ATCC64124, C. albicans ATCC 64124, resistant to FLC, ITC, and VOR, read-out: MIC
# Protocol: as §1
# C. albicans ATCC 10231 = assay: Antifungal MIC, CLSI M27-A3 microbroth dilution; format: cell-based, Candida albicans; conditions: Candida albicans, ATCC10231, C. albicans ATCC 10231, resistant to FLC, ITC, and VOR, read-out: MIC
# Protocol: as §1
# C. albicans ATCC 1003 = assay: Antifungal MIC, CLSI M27-A3 microbroth dilution; format: cell-based, Candida albicans; conditions: Candida albicans, ATCC1003, read-out: MIC
# Protocol: as §1
# C. albicans ATCC 90819 = assay: Antifungal MIC, CLSI M27-A3 microbroth dilution; format: cell-based, Candida albicans; conditions: Candida albicans, ATCC90819, C. albicans ATCC 90819, resistant to FLC, ITC, and VOR, read-out: MIC
# Protocol: as §1
# C. albicans ATCC 2310 = assay: Antifungal MIC, CLSI M27-A3 microbroth dilution; format: cell-based, Candida albicans; conditions: Candida albicans, ATCC2310, C. albicans ATCC 2310, susceptible to FLC, ITC, and VOR, read-out: MIC
# Protocol: as §1
# E. cloacae ATCC 13047 = assay: Antibacterial MIC, double-dilution method; format: cell-based; conditions: Enterobacter cloacae, ATCC13047, strain F, Gram-negative, read-out: MIC
# Protocol: (§2) MIC values were determined against a variety of Gram-positive (strains A-D) and Gram-negative (E-J) bacterial and mycobacterial (K) strains using the double-dilution method, as previously published. Preliminary screening was performed using 500 μM of each compound.
# B. subtilis 168 = assay: Antibacterial MIC, double-dilution method; format: cell-based; conditions: Bacillus subtilis, strain A, Gram-positive
# Protocol: as §2
# MRSA = assay: Antibacterial MIC, double-dilution method; format: cell-based; conditions: Staphylococcus aureus
# Protocol: as §2
# K. pneumoniae ATCC 27736 = assay: Antibacterial MIC, double-dilution method; format: cell-based; conditions: Klebsiella pneumoniae, ATCC27736, strain H, Gram-negative, read-out: MIC
# Protocol: as §2
# P. aeruginosa ATCC 27853 = assay: Antibacterial MIC, double-dilution method; format: cell-based; conditions: Pseudomonas aeruginosa, ATCC27853, strain I, Gram-negative, read-out: MIC
# Protocol: as §2
# [1] = test system: L. monocytogenes ATCC 19115; assay: Antibacterial MIC, double-dilution method; format: cell-based; conditions: Listeria monocytogenes, ATCC19115
# Protocol: as §2
# S. enterica ATCC 14028 = assay: Antibacterial MIC, double-dilution method; format: cell-based; conditions: Salmonella enterica, ATCC14028
# Protocol: as §2
# M. smegmatis MC2-155 = assay: Antibacterial MIC, double-dilution method; format: cell-based; conditions: Mycolicibacterium smegmatis, MC2155, strain K, mycobacterial, read-out: MIC
# Protocol: as §2
# E. coli MC1061 = assay: Antibacterial MIC, double-dilution method; format: cell-based; conditions: Escherichia coli
# Protocol: as §2
# A. baumannii ATCC 19606 = assay: Antibacterial MIC, double-dilution method; format: cell-based; conditions: Acinetobacter baumannii, ATCC19606
# Protocol: as §2
# VRE = assay: Antibacterial MIC, double-dilution method; format: cell-based; conditions: Enterococcus
# Protocol: as §2
# [2] = test system: C. albicans strains (panel of seven); assay: Antifungal MIC, summary over the panel; format: cell-based, Candida albicans; conditions: for MIC: Candida albicans, all, most or majority of the fungal strains, read-out: MIC, span over C. albicans strains
# Protocol: In vitro MIC testing was performed according to the CLSI M27-A3 standard microbroth dilution methodology for the susceptibility testing of yeasts with minor modifications. […] MIC values were read visually for all tested compounds, and the endpoint was determined as the minimum concentration of compound that yielded complete inhibition relative to growth control.
# [3] = Candida albicans, ATCC1237, C. albicans ATCC 1237, resistant to FLC, converted from μg/mL, read-out: MIC
# [4] = Candida albicans, ATCC1237, C. albicans ATCC 1237, resistant to FLC, read-out: MIC
# [5] = C. albicans ATCC 1003, converted from μg/mL
# [6] = strain C, Gram-positive, range 0.5 to 500 μM, read-out: MIC
# [7] = strain B, Gram-positive, range 0.5 to 500 μM, read-out: MIC
# [8] = strain J, Gram-negative, range 0.5 to 500 μM, read-out: MIC
# [9] = strain G, Gram-negative, converted from μM, read-out: MIC
# [10] = strain G, Gram-negative, range 0.5 to 500 μM, read-out: MIC
# [11] = strain E, Gram-negative, range 0.5 to 500 μM, read-out: MIC
# [12] = strain D, Gram-positive, range 0.5 to 500 μM, read-out: MIC
# [13] = strain C, Gram-positive, converted from μM, read-out: MIC
# [14] = strain B, Gram-positive, converted from μM, read-out: MIC
# [15] = strain J, Gram-negative, converted from μM, read-out: MIC
# [16] = strain E, Gram-negative, converted from μM, read-out: MIC
# [17] = strain D, Gram-positive, converted from μM, read-out: MIC
SMILES,MIC (C. albicans ATCC 1237; [3]),MIC (C. albicans ATCC 1237; [4]),MIC (C. albicans ATCC 2876; converted from μg/mL),MIC (C. albicans ATCC 2876),MIC (C. albicans ATCC 64124; converted from μg/mL),MIC (C. albicans ATCC 64124),MIC (C. albicans ATCC 10231; converted from μg/mL),MIC (C. albicans ATCC 10231),MIC (C. albicans ATCC 1003; [5]),MIC (C. albicans ATCC 1003),MIC (C. albicans ATCC 90819; converted from μg/mL),MIC (C. albicans ATCC 90819),MIC (C. albicans ATCC 2310; converted from μg/mL),MIC (C. albicans ATCC 2310),MIC (B. subtilis 168; converted from μM),MIC (B. subtilis 168; range 0.5 to 500 μM),MIC (MRSA; [6]),MIC (K. pneumoniae ATCC 27736; converted from μM),MIC (K. pneumoniae ATCC 27736; range 0.5 to 500 μM),"MIC [1, 7]",also measured
"C/C(=N\NC(=N)N)c1ccc(-c2ccc(/C(C)=N/NC(=N)N)cc2)cc1.Cl.Cl [Compound 4A, (2E,2′E)-2,2′-([1,1′-Biphenyl]-4,4′-diylbis(ethan-1-yl-1-ylidene))bis(hydrazine-1-carboximidamide) dihydrochloride]",> 73.9 µM,31.3 µg/mL,4.7 µM,2 µg/mL,4.7 µM,2 µg/mL,4.7 to 9.2 µM,2 to 3.9 µg/mL,18.4 µM,7.8 µg/mL,9.2 µM,3.9 µg/mL,9.2 µM,3.9 µg/mL,> 212 µg/mL,> 500 µM,> 500 µM,6.6 µg/mL,15.6 µM,> 500 µM,"MIC (C. albicans ATCC 1237; C. albicans ATCC 1237, resistant to FLC, dihydrochloride): >31.3 µg/mL; MIC (E. cloacae ATCC 13047; converted from μM): 52.9 µg/mL; MIC (E. cloacae ATCC 13047; range 0.5 to 500 μM): 125 µM; MIC (MRSA): > 212 µg/mL; MIC (P. aeruginosa ATCC 27853; converted from μM): 0.8 µg/mL; MIC (P. aeruginosa ATCC 27853; range 0.5 to 500 μM): 2 µM; MIC [1]: > 212 µg/mL; MIC (S. enterica ATCC 14028): > 212 µg/mL; MIC (S. enterica ATCC 14028; [8]): > 500 µM; MIC (M. smegmatis MC2-155; converted from μM): > 212 µg/mL; MIC (M. smegmatis MC2-155; range 0.5 to 500 μM): > 500 µM; MIC (E. coli MC1061; [9]): 26.5 µg/mL; MIC (E. coli MC1061; [10]): 62.5 µM; MIC (A. baumannii ATCC 19606): > 212 µg/mL; MIC (A. baumannii ATCC 19606; [11]): > 500 µM; MIC (VRE): > 212 µg/mL; MIC (VRE; [12]): > 500 µM; MIC [2]: 2 to 3.9 µg/mL"
"C/C(=N\NC(=N)N)c1ccc(Cc2ccc(/C(C)=N/NC(=N)N)cc2)cc1.Cl.Cl [Compound 4C, (2E,2′E)-2,2′-((methylenebis(4,1-phenylene))bis(ethan-1-yl-1-ylidene))bis(hydrazine-1-carboximidamide) dihydrochloride]",17.8 µM,7.8 µg/mL,8.9 µM,3.9 µg/mL,17.8 µM,7.8 µg/mL,17.8 µM,7.8 µg/mL,17.8 µM,7.8 µg/mL,17.8 µM,7.8 µg/mL,17.8 µM,7.8 µg/mL,> 219 µg/mL,> 500 µM,3.9 µM,> 219 µg/mL,> 500 µM,3.9 µM,"MIC (E. cloacae ATCC 13047; converted from μM): > 219 µg/mL; MIC (E. cloacae ATCC 13047; range 0.5 to 500 μM): > 500 µM; MIC (MRSA; [13]): 1.7 µg/mL; MIC (P. aeruginosa ATCC 27853; converted from μM): > 219 µg/mL; MIC (P. aeruginosa ATCC 27853; range 0.5 to 500 μM): > 500 µM; MIC [1, 14]: 1.7 µg/mL; MIC (S. enterica ATCC 14028; [15]): > 219 µg/mL; MIC (S. enterica ATCC 14028; [8]): > 500 µM; MIC (M. smegmatis MC2-155; converted from μM): 0.9 µg/mL; MIC (M. smegmatis MC2-155; range 0.5 to 500 μM): 2 µM; MIC (E. coli MC1061; [9]): > 219 µg/mL; MIC (E. coli MC1061; [10]): > 500 µM; MIC (A. baumannii ATCC 19606; [16]): > 219 µg/mL; MIC (A. baumannii ATCC 19606; [11]): > 500 µM; MIC (VRE; [17]): 0.9 µg/mL; MIC (VRE; [12]): 2 µM; melting point: 342 to 344 °C"
"Cl.N=C(N)N/N=C/c1ccc(-c2ccc(/C=N/Nc3ccccc3Br)cc2)cc1 [Compound 7Ab, (E)-2-((4′-((E and Z)-(2-(2-Bromophenyl)hydrazono)methyl)-[1,1′-biphenyl]-4-yl)methylene)hydrazine-1-carboximidamide monohydrochloride]",8.3 µM,3.9 µg/mL,8.3 µM,3.9 µg/mL,8.3 µM,3.9 µg/mL,4.1 µM,2 µg/mL,4.1 µM,2 µg/mL,8.3 µM,3.9 µg/mL,8.3 µM,3.9 µg/mL,> 235 µg/mL,> 500 µM,2 µM,> 235 µg/mL,> 500 µM,2 µM,"MIC (E. cloacae ATCC 13047; converted from μM): > 235 µg/mL; MIC (E. cloacae ATCC 13047; range 0.5 to 500 μM): > 500 µM; MIC (MRSA; [13]): 0.9 µg/mL; MIC (P. aeruginosa ATCC 27853; converted from μM): > 235 µg/mL; MIC (P. aeruginosa ATCC 27853; range 0.5 to 500 μM): > 500 µM; MIC [1, 14]: 0.9 µg/mL; MIC (S. enterica ATCC 14028; [15]): > 235 µg/mL; MIC (S. enterica ATCC 14028; [8]): > 500 µM; MIC (M. smegmatis MC2-155; converted from μM): 1.8 µg/mL; MIC (M. smegmatis MC2-155; range 0.5 to 500 μM): 3.9 µM; MIC (E. coli MC1061; [9]): > 235 µg/mL; MIC (E. coli MC1061; [10]): > 500 µM; MIC (A. baumannii ATCC 19606; [16]): > 235 µg/mL; MIC (A. baumannii ATCC 19606; [11]): > 500 µM; MIC (VRE; [17]): 0.9 µg/mL; MIC (VRE; [12]): 2 µM; melting point: > 380 °C; antifungal activity in words ([2]; against all fungal strains tested): excellent antifungal activities"
"C/C(=N\NC(=N)N)c1ccc(-c2ccc(/C(C)=N/Nc3ccccc3Cl)cc2)cc1.Cl [Compound 8Aa, (E)-2-(1-(4′-((E)-1-(2-(2-chlorophenyl)hydrazono)ethyl)-[1,1′-biphenyl]-4-yl)ethylidene)hydrazine-1-carboximidamide hydrochloride]",34.3 µM,15.6 µg/mL,34.3 µM,15.6 µg/mL,68.7 µM,31.3 µg/mL,34.3 µM,15.6 µg/mL,34.3 µM,15.6 µg/mL,34.3 µM,15.6 µg/mL,34.3 µM,15.6 µg/mL,26.6 to 53.3 µg/mL,62.5 to 125 µM,125 µM,26.6 to 53.3 µg/mL,62.5 to 125 µM,62.5 to 125 µM,"MIC (MRSA; [13]): 53.3 µg/mL; MIC [1, 14]: 26.6 to 53.3 µg/mL; MIC (S. enterica ATCC 14028; [15]): 26.3 to 53.3 µg/mL; MIC (S. enterica ATCC 14028; [8]): 62.5 to 125 µM; MIC (E. coli MC1061): 213 µg/mL and 500 µM; MIC (A. baumannii ATCC 19606; [16]): 26.6 µg/mL; MIC (A. baumannii ATCC 19606; [11]): 62.5 µM; MIC (VRE; [17]): 1.7 µg/mL; MIC (VRE; [12]): 3.9 µM; melting point: > 380 °C; MIC [2]: 7.8 to 15.6 µg/mL"
